Test results as given in patent US20080089860A1, “Therapeutic compositions and methods useful in treating cancer” (priority 2006, published 2008).
Where “and” joins values, the source holds several entries; their conditions need not be identical. Equal entries are not always repeated.

What was measured:
NB4 cells [1] = test: NB4 cell cycle analysis and Annexin V/propidium iodide assay; type: cell-based, human; details: 3 days; sodium stibogluconate 250 μg/ml, ATRA 1 μM
Experimental: […] Briefly, the cells were fixed in cold ethanol and incubated for 30 minutes at 4° C. in the dark with a solution of […], 1 mg/ml RNase and 0.1% NP-40. Analysis was performed immediately after staining using the CELLFIT program (Becton Dickinson, Mountain View, Calif.).
] Annexin V staining of exposed membrane phospholipid phosphatidylserine (PS) was done using the Annexin V assay kit (Pharmingen, San Diego, Calif.). Briefly, NB4 cells were cultured in the 10% FCS RPMI 1640 medium in the absence or presence of sodium stibogluconate (250 µg/ml) or ATRA (1 µM) for 3 days. Cells were then washed in PBS twice and stained in binding buffer (10 mM Hepes, pH 7.4; 140 mM NaCl; 2.5 mM CaCl2) containing Annexin V-FITC and propidium iodide for 15 min. The reaction was stopped by adding 10 volumes of binding buffer and analyzed by FACS (Becton Dickinson Facsvantage).

HL-60 cells = test: HL-60 differentiation (NBT reduction); type: cell-based, human; details: day 6
Experimental: (§1) Differentiation of AML cell lines was assessed by their ability to produce superoxide as measured by reduction of NBT to formazan and by analysis of expression of CD11b surface marker by flow cytometry. For NBT reduction, each cell suspension was mixed with an equal volume of solution containing 1 mg/ml of NBT (Sigma) and 2.5 µg/ml of TPA for 30 minutes at 37° C. After incubation, cells containing the purple formazan deposits and cells devoid of NBT-reducing activity (white cells) in each sample were determined by counting 200 cells under microscope. Data is expressed as a percentage based on the following ratio: purple cells/purple+white cells. For analysis of cell surface antigens, cells were exposed to phycoerythrin (PE)-conjugated murine anti-human CD11b (DAKO Corp., Carpinteria, Calif.). Analysis of fluorescence was performed on a FACScan flow cytometer (Beckton Dickinson, Mountain View, Calif.).

[2] = test system: acute promyelocytic leukemia; details: in vivo; cited from earlier work
U937 cells = test: U937 differentiation (NBT reduction); type: cell-based, human; details: day 6
Experimental: as §1

SHP-1 = target: T1, SHP-1 (Mus musculus, UniProt P29351); test: In vitro PTPase assay, GST/SHP-1; type: biochemical; details: 1-1,000 μg/ml
T1 construct: made in house
T1 sequence (P29351 whole entry): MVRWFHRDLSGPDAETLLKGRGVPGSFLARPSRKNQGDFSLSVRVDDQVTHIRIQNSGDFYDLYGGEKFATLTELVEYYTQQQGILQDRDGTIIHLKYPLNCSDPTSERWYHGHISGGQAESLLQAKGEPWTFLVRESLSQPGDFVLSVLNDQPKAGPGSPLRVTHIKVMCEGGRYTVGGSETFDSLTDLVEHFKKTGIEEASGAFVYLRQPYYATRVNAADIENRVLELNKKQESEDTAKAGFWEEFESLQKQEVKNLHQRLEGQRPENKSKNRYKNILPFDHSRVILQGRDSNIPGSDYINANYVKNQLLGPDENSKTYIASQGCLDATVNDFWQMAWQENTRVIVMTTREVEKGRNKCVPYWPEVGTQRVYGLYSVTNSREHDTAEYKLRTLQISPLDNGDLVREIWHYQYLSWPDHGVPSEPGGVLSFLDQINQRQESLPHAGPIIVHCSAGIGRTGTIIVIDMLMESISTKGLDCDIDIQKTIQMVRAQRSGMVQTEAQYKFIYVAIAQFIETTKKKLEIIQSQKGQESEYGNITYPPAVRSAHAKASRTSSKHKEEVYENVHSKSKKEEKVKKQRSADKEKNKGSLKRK
Experimental: In vitro PTPase activities were measured using the commercial protein tyrosine phosphatase assay kit (Upstate Biotechnology, Inc. (“UBI”)) following established procedure known to one of skill in the art. […] Briefly, 0.01 µg of GST/PTPase fusion proteins was incubated in 50 µl of Tris buffer (10 mM Tris, pH 7.4) containing different concentrations of inhibitors or chemicals (0-1,000 µg/ml) at 22° […] 100 µl of Malachite Green solution was added and incubated for 5 minutes, and the absorbance at 660 nm was measured after 5 minutes.
To assess the reversibility of inhibition of SHP-1 by PTPase inhibitors, GST/SHP-1 fusion protein bound on glutathione beads were pre-incubated in cold Tris buffer or Tris buffer containing the PTPase inhibitors at 4° C. for 30 minutes. The beads were then either subjected to in vitro PTPase assays or washed 3 times in Tris buffer then subjected to in vitro PTPase assays.
Briefly, individual PTPases (0.1 µg/reaction) in 50 µL of PTPase buffer (50 mM Tris, pH 7.4) were incubated at 22° C. for 10 minutes or as indicated in the absence or presence of inhibitory compounds. Substrates (0.2 mM phosphotyrosine peptide) were then added and allowed to react at 22° C. for 18 hrs. PTPase activity of individual reactions was measured by adding 100 µL of malachite green solution (UBI) and then quantifying the amounts of free phosphate cleaved by the PTPase from the peptide substrate by spectrometry (OD660 nm). […] Relative PTPase activities were calculated based on the formula: (PTPase activity in the presence of an inhibitory compound/PTPase activity in the absence of the compound)× 100%. To assess the reversibility of PTPase inhibition, GST fusion proteins of the PTPases bound on glutathione beads (Pharmacia) were pre-incubated with cold Tris buffer (50 mM Tris, pH 7.0) or Tris buffer containing the inhibitor at 4° C. for 30 minutes. The beads were then washed three times in cold Tris buffer or not washed prior to subjecting to in vitro PTPase assays.

PTP1B = target: T2, PTP1B (Homo sapiens, UniProt P18031); test: In vitro PTPase assay, GST/PTP1B; type: biochemical; details: 1-1,000 μg/ml
T2 construct: purchased Upstate Biotechnology Inc. (Lake Placid, N.Y.)
T2 sequence (P18031 whole entry, species assumed): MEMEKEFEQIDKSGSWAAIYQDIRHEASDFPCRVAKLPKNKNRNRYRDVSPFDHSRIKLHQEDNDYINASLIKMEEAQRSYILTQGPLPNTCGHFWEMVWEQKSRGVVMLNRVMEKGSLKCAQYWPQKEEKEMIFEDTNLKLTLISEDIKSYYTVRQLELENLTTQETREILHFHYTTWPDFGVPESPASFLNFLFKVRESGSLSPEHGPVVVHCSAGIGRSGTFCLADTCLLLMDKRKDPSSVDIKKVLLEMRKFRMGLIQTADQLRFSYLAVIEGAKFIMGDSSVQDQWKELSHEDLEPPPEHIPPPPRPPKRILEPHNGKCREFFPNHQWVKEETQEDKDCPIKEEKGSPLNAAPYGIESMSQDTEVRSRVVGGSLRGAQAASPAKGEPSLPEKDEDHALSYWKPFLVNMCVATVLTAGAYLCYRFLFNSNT
Experimental: In vitro PTPase activities were measured using the commercial protein tyrosine phosphatase assay kit (Upstate Biotechnology, Inc. (“UBI”)) following established procedure known to one of skill in the art. This assay measures the in vitro dephosphorylation of a synthetic phosphotyrosine peptide of the sequence Arg-Arg-Leu-Ile-Glu-Asp-Ala-Gle-T- -yr-Ala-Ala-Arg-Gly, wherein the tyrosine is phosphorylated (SEQ ID NO: 3). Briefly, 0.01 µg of GST/PTPase fusion proteins was incubated in 50 µl of Tris buffer (10 mM Tris, pH 7.4) containing different concentrations of inhibitors or chemicals (0-1,000 µg/ml) at 22° C. for 10 minutes, followed by addition of 0.2 mM of the phosphotyrosine peptide and incubation at 22° C. for 18 hours. 100 µl of Malachite Green solution was added and incubated for 5 minutes, and the absorbance at 660 nm was measured after 5 minutes.
In vitro PTPase assays were used to determine the effects of levamisole (Sigma), pentamidine (American Pharmaceutical Partners, Inc.), and ketoconazole (Sigma) on recombinant PTPases, following established procedures (Pathak et al., J. Imumol. 167, 3391 (2001); Pathak et al., Leukemia 16, 2285 (2002), Yi et al., J. Immunol. 169, 5978 (2002)) using a synthetic phosphotyrosine peptide or DiFMUP as the substrate as detailed above in section I.A.2.

Baf3 cells = test: Baf3 cell proliferation assay; type: cell-based, murine
Experimental: The murine hematopoietic cell line Baf3 was maintained in RPMI 1640 medium supplemented with 10% fetal calf serum (FCS) and murine IL-3 (20 units/ml) as described previously in Damen et al., J. Biol. Chem. 270, 23402 (1995). Human myeloid cell line TF-1 was maintained in RPMI 1640 supplemented with 10% FCS and 40 ng/ml of recombinant human GM-CSF as described previously in Thomassen et al., Clin. Immunol. 95, 85 (2000). For cell proliferation assays, cells were washed in 10% FCS medium twice, resuspended in 10% FCS medium, incubated at 37° C. for 16 hours, and then cultured at 37° C. in 10% FCS medium containing various amounts of cytokines, sodium stibogluconate, or potassium antimonyl tartrate for 3-6 days as indicated. The cell numbers in proliferation assays were determined by an MTT assay or by microscopic cell counting as indicated.

[3] = test system: Jak2/Stat5 and cellular protein tyrosine phosphorylation in Baf3 cells; test: Cellular protein phosphorylation and Western blotting in Baf3 cells; type: cell-based, murine; details: Baf3 cells
Experimental: For induction of cellular protein phosphorylation by sodium stibogluconate or pervanadate, Baf3 cells were incubated in 0.1% FCS-RPMI 1640 medium at 37° C. for 16 hours. The cells were then washed twice in RPMI 1640 medium and incubated with sodium stibogluconate or pervanandate (0.1 mM) for various times prior to termination by lysing cells in cold lysis buffer (50 mM Tris, pH 7.4; 150 mM NaCl; 0.2 mM Na3VO4; 20 mm NaF; 1% Nonidet P-40; 2 mM PMSF; 20 µg/ml of Aprotinin and 1 mM of sodium molybdic acid). To determine the effect of sodium stibogluconate or potassium antimonyl tartrate on IL-3-induced Jak/Stat phosphorylation, Baf3 cells were deprived of the growth factor for 16 hours in 0.1% FCS RPMI 1640 medium and then incubated with or without sodium stibogluconate or potassium antimonyl tartrate for 10 minutes. IL-3 was next added to the cell suspension and incubated for various times. The Cells were then harvested and lysed in cold lysis buffer at 4° C. for 45 minutes. Total cell lysates (TCL) were separated in SDS-PAGE gels, blotted onto nitrocellulose membrane (Schleicher & Schuell), probed with specific antibodies and detected using an enhanced chemiluminescence kit (ECL, Amersham, Arlington Heights, Ill.).

NB4 cells [4] = test: NB4 differentiation (NBT reduction, CD11b); type: cell-based, human; details: GM-CSF alone
Experimental: as §1

[5] = sodium stibogluconate 400 μg/ml, GM-CSF 25 ng/ml

For `CC1=C(/C=C/C(C)=C/C=C/C(C)=C/C(=O)O)C(C)(C)CCC1` [ATRA, All-trans-retinoic acid], the “cell cycle distribution of NB4 cells” value (NB4 cells [1]) is given as “arrested at G1 phase”, the “HL-60 differentiation (NBT-positive cells)” value (HL-60 cells; [5]) is given as 90% and the “long term APL-free survival” value [2] is given as “exceeding 75%”. The “U937 differentiation (NBT-positive cells)” value (U937 cells; [5]) was 72% and 73%.

In the case of `O.O.O.O=C([O-])[C@H]([O-])[C@@H]([O-])C(=O)[O-].O=C([O-])[C@H]([O-])[C@@H]([O-])C(=O)[O-].[K+].[K+].[Sb+3].[Sb+3]` [potassium antimonyl tartrate], the “inhibition of SHP-1” value (SHP-1) is reported as “no detectable inhibition”, the “inhibition of PTP1B” value (PTP1B) is reported as “no detectable inhibition” and the “toxicity against Baf3 cells” value (Baf3 cells) is reported as “marked toxicity”. The “IL-3-induced proliferation of Baf3 cells” value (Baf3 cells; IL-3 10 units/ml, three days) was “failed to enhance” and the “IL-3-induced Stat5 phosphorylation” value [3] was “failed to enhance”.

In the case of GM-CSF: recombinant human GM-CSF, the “effect on NB-4 cell differentiation” value (NB4 cells [4]) is reported as “no detectable effect”, the “maximal increase of NBT-positive cells” value (HL-60 cells; GM-CSF alone) is reported as 8-10% and the “maximal increase of NBT-positive cells” value (U937 cells; GM-CSF alone) is reported as 8-10%.
